Results published in patent US20080039531A1, “Compositions, and kits comprising targeted aldehyde or acetal protease inhibitor compounds for treating muscle disorders” (priority 2005, published 2008).
Entries after “also recorded” stand apart in the source; their conditions may differ.

Assays:
[1] = Monkey study, oral leupeptin: hematology, blood clotting, serum biochemistry; format: in vivo; conditions: monkeys, oral leupeptin 3, 6, 12, 18 mg/kg twice daily for 6 months after nerve repair
Procedure: Subsequent to the above studies another series of experiments were performed on the monkeys to assess another route of leupeptin administration in these animals (8). In this regard, oral delivery of leupeptin, after median nerve transection and epineural nerve repair, was studied for its potential benefits to neuromuscular recovery. […] When plasma leupeptin concentrations were 3 mg or greater, morphologic and functional motor recovery were facilitated after nerve repair.
Hematology/blood chemistry. Blood was drawn from the femoral vein at 1, 3, 4, 5, and 7 months postoperatively. Complete blood counts, clotting parameters, and serum chemistries in control animals and in animals after oral leupeptin administration at 3, 6, 12, and 18 mg/kg were quantified. Values were determined for hemoglobin, hematocrit, WBC, RBC, MCV, MCH, MCHC, differential (polymorphonuclear leukocytes, lymphocytes, monocytes, eosinophils, basophils), platelets, prothrombin time, partial thromboplastin time, glucose, urea nitrogen, creatinine, total protein, albumin, total bilirubin, alkaline phosphatase, SGPT, SGOT, lactic dehydrogenase, cholesterol, calcium, phosphorus, sodium, potassium, chloride, A/G, BUN/creatinine, globulin, amylase.

MDX mice = experiment: MDX mouse study: myofiber diameter after intramuscular leupeptin; format: in vivo; conditions: for Myofiber diameter, Anterior tibialis / Myofiber diameter, Diaphragm / Myofiber diameter, Gastrocnemius / Myofiber diameter, Soleus: mdx mice, ± SD
Procedure: It is well documented that as, observed in DMD and BMD, dystrophin is dysfunctional/absent in the murine MDX model of muscular dystrophy. […] A series of studies to test the ability of the calpain inhibitor, leupeptin, to delay and/or prevent features of calcium-induced damage to dystrophic myofibers was initiated. Control C57BL/10SNJ mice were treated with intramuscular injections of normal saline. The MDX mice were treated intramuscularly with either normal saline or 12 mg/kg leupeptin or 18 mg/kg leupeptin twice daily. All injections were delivered in the hind-limbs in various locations to avoid muscle damage due to repeated injections at the same location. The gastrocnemius, soleus, anterior tibialis, and diaphragm muscles were examined in all animals.

[2] = Monkey study, intramuscular leupeptin: toxicology and echocardiograms; format: in vivo, Cebus apella
Procedure: In order to test the hypothesis that in vivo inhibition of calpains by leupeptin can facilitate neuromuscular recovery by inhibiting denervation atrophy of the skeletal-muscle target after complete peripheral nerve transection and delayed nerve repair (7), a monkey study (Cebus apella) was undertaken. This median-nerve model was chosen to approximate human anatomic and regenerative aspects.
Complete blood counts and clotting times after intramuscular leupeptin administration at 18 mg/kg, twice daily for 24 weeks, were not affected in treated animals, when compared to controls. In controls, mean values were as follows: WBC=4.83±1.04×10^3; RBC=5.34±0.34×10^6; hematocrit=37.97%±2.09; platelets=3.30±0.05×10^5; prothrombin time=9.68±0.36 sec; partial thromboplastin time=28.78±1.32 sec. In treated animals, mean values were: WBC=6.67±2.26×10^3; RBC=5.55±0.26×10^6; hematocrit=38.18%+1.69; platelets 4.33±0.18×10^5; prothrombin time=10.88±0.49 sec; partial thromboplastin time=33.06±0.76 sec.
Echocardiograms: To assure that leupeptin was causing no pathological effects on heart muscle, the cardiac lateral wall and septum were measured in millimeters in all animals prior to leupeptin treatment and 25 weeks after delayed nerve repair. Prior to treatment, in animals designated as controls, the lateral wall was 2.88±0.33 mm and the septum was 2.84±0.2 mm. Twenty-five weeks later in control animals, the lateral wall was 3.0±0.5 mm and the septum was 2.9±0.2 mm. Prior to treatment, in animals designated to receive leupeptin, the lateral wall was 3.5±0.2 mm and the septum was 2.9±0.4 mm. Twenty-five weeks later, in leupeptin-treated animals, the lateral wall was 3.2±0.1 mm and the septum was 2.8±0.3 mm. Importantly, there were no significant statistical differences within either the control or treatment groups or between the control and treatment groups (data not shown).

[3] = Absorption of leupeptin into plasma after intramuscular injection (FIG. 2); format: in vivo, rats; conditions: leupeptin 18 mg/kg intramuscular injection in hind-limbs
Procedure: To determine that leupeptin was effectively being absorbed into plasma following intramuscular (“IM”) administration in hind-limbs of 18 mg/kg, blood was withdrawn at 60, 75, 90, 120, 180 minutes and 24 hours after the IM injection (FIG. 2).

[4] = 12 mg/kg leupeptin intramuscularly twice daily
[5] = 18 mg/kg leupeptin intramuscularly twice daily
[6] = leupeptin-treated monkeys, twenty-five weeks after delayed nerve repair
[7] = monkeys, intramuscular leupeptin 18 mg/kg twice daily for 24 weeks

For CC(=O)N[C@@H](CC(C)C)C(=O)N[C@@H](CC(C)C)C(=O)N[C@H](C=O)CCCNC(=N)N [Leupeptin], the “hematology, blood clotting and serum biochemistry” value [1] was “no adverse effects; also recorded: no significant differences”, the “increase in myofiber diameter vs untreated MDX muscle” value (from here on “increase in myofiber diameter”) (MDX mice; anterior tibialis, 12 mg/kg) was 35% and the “increase in myofiber diameter” value (MDX mice; anterior tibialis, 18 mg/kg) was 36%. For the same compound, the “increase in myofiber diameter” value (MDX mice; diaphragm, 12 mg/kg) was 25%, the “increase in myofiber diameter” value (MDX mice; diaphragm, 18 mg/kg) was 25% and the “increase in myofiber diameter” value (MDX mice; gastrocnemius, 12 mg/kg) was 37%. The “increase in myofiber diameter” value (MDX mice; gastrocnemius, 18 mg/kg) was 39%, the Myofiber diameter, Anterior tibialis (MDX mice; [4]) was 37.5 ± 2.8 µm and the Myofiber diameter, Diaphragm (MDX mice; [4]) was 21.8 ± 0.9 µm. The Myofiber diameter, Gastrocnemius (MDX mice; [4]) was 32.9 ± 2.6 µm, the Myofiber diameter, Soleus (MDX mice; [4]) was 24.7 ± 1.8 µm and the Myofiber diameter, Anterior tibialis (MDX mice; [5]) was 38.3 ± 1.3 µm. For the same compound, the Myofiber diameter, Diaphragm (MDX mice; [5]) was 21.7 ± 1.8 µm, the Myofiber diameter, Gastrocnemius (MDX mice; [5]) was 34 ± 2.7 µm and the Myofiber diameter, Soleus (MDX mice; [5]) was 25.5 ± 2.3 µm. The “increase in myofiber diameter” value (MDX mice; soleus, 12 mg/kg) was 22%, the “increase in myofiber diameter” value (MDX mice; soleus, 18 mg/kg) was 25% and the “cardiac lateral wall (echocardiogram)” value [2, 6] was 3.2±0.1 mm. The “cardiac septum (echocardiogram)” value [2, 6] was 2.8±0.3 mm, the RBC [2, 7] was 5.55±0.26×10^6 and the WBC [2, 7] was 6.67±2.26×10^3. For the same compound, the “blood chemistry analyses, treated vs control” value [2, 7] was “no significant differences between treated and control animals”, the hematocrit [2, 7] was 38.18% and the partial thromboplastin time [2, 7] was 33.06 ± 0.76 s. For the same compound, the platelets [2, 7] was 4.33±0.18×10^5, the prothrombin time [2, 7] was 10.88 ± 0.49 s and the peak plasma level [3] was 4.5 µg/mL. For the same compound, the “time of plasma peak” value [3] was 1 h and the concentration at 24 h ([3]; rat, plasma, 24 hr, read-out: plasma level by 24 hr) was 0 ng/mL.
